Results taken from DBAASP.
In brackets after ≈: the same amount, converted by molar mass. Several values for one entry are separate records, joined by “and”; a condition that tells them apart may be missing. Equal values may be shown once.

Columns and labels:
Assay in all cases: ≥ marks a high value that may be exact or a test limit, other limits are often not marked, values filed in µg/mL are converted to µM
[1] = system: Micrococcus luteus
[2] = system: Staphylococcus aureus ATCC 29213
[3] = system: Klebsiella pneumoniae ATCC 13883
[4] = system: Staphylococcus aureus ATCC 25923
[5] = system: Acinetobacter baumannii
[6] = system: Klebsiella pneumoniae
[7] = system: Pseudomonas aeruginosa ATCC 27853
[8] = system: Staphylococcus aureus
[9] = system: Acinetobacter baumannii ATCC 19606
[10] = system: Pseudomonas aeruginosa
[11] = system: Escherichia coli
[12] = system: Escherichia coli ATCC 25922
[13] = system: Escherichia coli DH5alpha
[14] = system: Salmonella enterica subsp. enterica serovar Typhimurium ATCC 14028
[15] = system: Escherichia coli ATCC 11775

## CC(C)C[C@H](NC(=O)CNC(=O)[C@H](CC(C)C)NC(=O)CNC(=O)[C@H](CC(N)=O)NC(=O)[C@H](CC(C)C)NC(=O)[C@H](CC(C)C)NC(=O)[C@H](CC(N)=O)NC(=O)CNC(=O)[C@H](CC(C)C)NC(=O)[C@@H](NC(=O)CNC(=O)[C@H](CC(C)C)NC(=O)[C@H](CC(C)C)NC(=O)CN)[C@@H](C)O)C(N)=O [GLLGTLGNLLNGLGL]
[1]
  MIC: ≥ 35.1 µM

## CC[C@H](C)[C@H](NC(=O)[C@H](C)NC(=O)[C@@H](N)C(C)C)C(=O)N[C@@H](C)C(=O)N[C@@H](CC(C)C)C(=O)N[C@@H](CCCCN)C(=O)N[C@@H](C)C(=O)N[C@@H](C)C(=O)N[C@@H](Cc1cnc[nH]1)C(=O)N[C@@H](Cc1ccc(O)cc1)C(=O)N[C@@H](C)C(=O)N[C@H](C(=O)N[C@@H](Cc1cnc[nH]1)C(=O)N[C@@H](CCCCN)C(=O)N[C@@H](CCC(=O)O)C(=O)O)[C@@H](C)O [VAIALKAAHYATHKE]
[2]
  MIC: 39.4 µM (≈ 64 µg/mL)
[3]
  MIC: ≥ 78.9 µM

## CC[C@H](C)[C@H](NC(=O)[C@@H](N)CCCCN)C(=O)NCC(=O)N[C@@H](CCCCN)C(=O)N[C@@H](C)C(=O)N[C@@H](CC(C)C)C(=O)NCC(=O)N[C@@H](CCCCN)C(=O)N[C@@H](C)C(=O)N[C@@H](CC(C)C)C(=O)N[C@@H](CCCCN)C(=O)N[C@@H](C)C(=O)N[C@@H](CC(C)C)C(=O)NCC(=O)N[C@@H](CCCCN)C(=O)N[C@@H](C)C(=O)N[C@@H](CC(C)C)C(=O)NCC(=O)N[C@@H](CCCCN)C(=O)N[C@@H](C)C(N)=O [KIGKALGKALKALGKALGKA]
[4]
  MIC: 16 µM and 22.6 µM
[5]
  MIC: ≥ 45.3 µM
[6]
  MIC: 16 µM (≈ 31 µg/mL)
[3]
  MIC: 16 µM (≈ 31 µg/mL)
[7]
  MIC: 8 µM (≈ 15.5 µg/mL)
[8]
  MIC: 16 µM (≈ 31 µg/mL)
[9]
  MIC: 2 µM (≈ 3.87 µg/mL)
[10]
  MIC: 22.6 µM (≈ 43.8 µg/mL)
[11]
  MIC: 45.3 µM (≈ 87.6 µg/mL)
[12]
  MIC: 8 µM (≈ 15.5 µg/mL)

## CC[C@H](C)[C@H](NC(=O)[C@H](Cc1cnc[nH]1)NC(=O)[C@H](C)NC(=O)[C@H](CCSC)NC(=O)[C@H](CC(N)=O)NC(=O)[C@H](CCCCN)NC(=O)[C@H](CCCCN)NC(=O)[C@@H](NC(=O)[C@@H](NC(=O)[C@H](CCCCN)NC(=O)[C@H](C)NC(=O)[C@H](Cc1ccccc1)NC(=O)[C@H](CC(C)C)NC(=O)[C@H](CCCCN)NC(=O)[C@@H]1CCCN1C(=O)[C@H](CC(C)C)NC(=O)[C@@H](N)Cc1ccccc1)[C@@H](C)CC)[C@@H](C)O)C(=O)N[C@@H](CCCN=C(N)N)C(=O)N[C@@H](CS)C(=O)O [FLPKLFAKITKKNMAHIRC]
[13]
  MIC: 17 µM and 12 µM
[14]
  MIC: 15 µM (≈ 33.9 µg/mL)
[3]
  MIC: 12 µM and 10 µM
[7]
  MIC: 15 µM (≈ 33.9 µg/mL)

## NCCCC[C@H](NC(=O)[C@H](Cc1c[nH]c2ccccc12)NC(=O)[C@H](CCC(N)=O)NC(=O)[C@H](Cc1c[nH]c2ccccc12)NC(=O)[C@H](CCCCN)NC(=O)[C@H](Cc1c[nH]c2ccccc12)NC(=O)[C@H](CCC(N)=O)NC(=O)[C@H](Cc1c[nH]c2ccccc12)NC(=O)[C@@H](N)CCCCN)C(=O)O [KWQWKWQWK]
[4]
  MIC: 143 µM (≈ 201 µg/mL)
[15]
  MIC: ≥ 36 µM
[7]
  MIC: 143 µM (≈ 201 µg/mL)
[12]
  MIC: 36 µM (≈ 50.5 µg/mL)
